Assay results from ChEMBL document CHEMBL5236615, “Discovery of Novel N-Heterocyclic-Fused Deoxypodophyllotoxin Analogues as Tubulin Polymerization Inhibitors Targeting the Colchicine-Binding Site for Cancer Treatment” (J Med Chem, 2022).
In brackets after ≈: the same amount, converted by molar mass. Activity calls are given as the source filed them. The calls are words filed in the database; no cut-off is given here.

What was measured:
[1] = Aqueous solubility in pH 7.4 PBS buffer by HPLC-UV analysis; assay type: physicochemical
MCF7 [2] = assay: Induction of cell cycle arrest in human MCF7 cells assessed as arrest in G2/M phase by measuring accumulation of CDK7 at 5 to 25 nM incubated for 24 hrs by Western blotting analysis; assay type: functional, cell-based; conditions: dose 5-25 nM
[3] = Antiproliferative activity against paclitaxel-resistant human A549/TxR cells measured after 72 hrs by MTT assay; assay type: functional, cell-based
MCF7 [4] = assay: Induction of cell cycle arrest in human MCF7 cells assessed as accumulation of cells at G2/M phase at 10 nM measured after 24 hrs by flow cytometry relative to control; assay type: functional
[5] = Acute toxicity in ICR mouse; conditions: in vivo
MCF7 [6] = assay: Induction of cell cycle arrest in human MCF7 cells assessed as arrest in G2/M phase by measuring accumulation of p21 at 5 to 25 nM incubated for 24 hrs by Western blotting analysis; assay type: functional, cell-based; conditions: dose 5-25 nM
HUVEC [7] = assay: Inhibition of angiogenesis in HUVEC cells assessed as reduction in capillary tube formation after 6 hrs by phase contrast microscopy; assay type: functional, cell-based; conditions: Homo sapiens, dose 1.25-5 nM
[8] = Toxicity in Balb/c mouse xenografted with human MCF7 cells assessed as pathological changes in kidney at 5 to 20 mg/kg, ip administered for every 2 days for 21 days by hematoxylin and eosin staining based analysis; assay type: organism-based; conditions: in vivo, 504 h, dose 5-20 mg/kg, time 21 day
[9] = biological target: ATP-dependent translocase ABCB1 (Homo sapiens, UniProt P08183); assay: Substrate activity at P-glycoprotein in paclitaxel-resistant human MCF/TxR cells assessed as intracellular Rhodamine-123 content at 10 uM incubated for 12 hrs by confocal microscopy; assay type: cell-based; conditions: mcf7/txr
Chain of ATP-dependent translocase ABCB1 (P08183 whole entry): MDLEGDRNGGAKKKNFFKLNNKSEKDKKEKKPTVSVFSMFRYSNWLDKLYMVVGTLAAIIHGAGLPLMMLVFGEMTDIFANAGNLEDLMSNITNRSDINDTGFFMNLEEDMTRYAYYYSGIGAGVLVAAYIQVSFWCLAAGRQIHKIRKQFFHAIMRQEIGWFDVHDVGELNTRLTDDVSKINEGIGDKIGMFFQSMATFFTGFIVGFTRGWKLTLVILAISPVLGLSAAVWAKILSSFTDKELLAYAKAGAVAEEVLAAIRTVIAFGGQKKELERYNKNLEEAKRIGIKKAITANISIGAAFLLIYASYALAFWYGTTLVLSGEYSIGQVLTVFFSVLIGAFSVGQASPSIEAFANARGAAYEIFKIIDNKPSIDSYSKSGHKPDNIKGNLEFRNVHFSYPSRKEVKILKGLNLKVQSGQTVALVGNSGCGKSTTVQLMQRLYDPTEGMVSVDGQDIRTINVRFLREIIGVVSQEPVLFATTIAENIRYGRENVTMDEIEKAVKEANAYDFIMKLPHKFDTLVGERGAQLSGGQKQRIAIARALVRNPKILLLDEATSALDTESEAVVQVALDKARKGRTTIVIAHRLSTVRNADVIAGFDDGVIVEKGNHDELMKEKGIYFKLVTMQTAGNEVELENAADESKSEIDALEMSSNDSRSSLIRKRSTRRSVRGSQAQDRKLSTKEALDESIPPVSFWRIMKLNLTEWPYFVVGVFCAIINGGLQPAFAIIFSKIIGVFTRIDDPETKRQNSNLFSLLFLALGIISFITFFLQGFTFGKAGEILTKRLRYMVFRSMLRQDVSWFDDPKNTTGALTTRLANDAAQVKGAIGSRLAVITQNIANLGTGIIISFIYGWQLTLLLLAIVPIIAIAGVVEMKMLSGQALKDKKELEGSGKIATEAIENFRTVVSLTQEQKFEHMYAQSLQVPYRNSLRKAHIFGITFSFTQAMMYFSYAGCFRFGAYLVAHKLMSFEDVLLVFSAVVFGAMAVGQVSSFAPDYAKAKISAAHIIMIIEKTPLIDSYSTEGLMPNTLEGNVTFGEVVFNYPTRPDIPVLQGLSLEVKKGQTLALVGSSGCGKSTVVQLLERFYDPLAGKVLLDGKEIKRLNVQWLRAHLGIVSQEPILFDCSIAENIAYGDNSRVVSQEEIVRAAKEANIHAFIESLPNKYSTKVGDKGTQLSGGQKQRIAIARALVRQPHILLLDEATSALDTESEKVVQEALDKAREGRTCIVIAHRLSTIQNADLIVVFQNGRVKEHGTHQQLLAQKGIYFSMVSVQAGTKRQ

HT-29 = assay: Antiproliferative activity against human HT-29 cells measured after 72 hrs by MTT assay; assay type: functional, cell-based; conditions: HT-29, 72 h
Tubulin = Tubulin (Sus scrofa, UniProt P02554+P02550); assay: Binding affinity to porcine brain tubulin assessed as changes in the fluorescence incubated for 10 mins tryptophan-based binding assay
MCF7 [10] = assay: Induction of cell cycle arrest in human MCF7 cells assessed as accumulation of cells at G2/M phase at 20 nM measured after 24 hrs by flow cytometry relative to control; assay type: functional
Tubulin (Homo sapiens) [11] = biological target: T1, Tubulin (Homo sapiens) (UniProt P68371+Q9H4B7+P0DPH7+P68366+Q13509+Q71U36+P04350+Q3ZCM7+P07437+P68363+Q9BQE3+Q6PEY2+Q13885+Q9BVA1+Q9BUF5); assay: Inhibition of [3H]colchicine binding to tubulin (unknown origin) at 1 uM by competition scintillation proximity assay relative to control; assay type: protein-complex assay
[12] = Toxicity in Balb/c mouse xenografted with human MCF7 cells assessed as body weight loss at 5 to 20 mg/kg, ip administered for every 2 days for 21 days; assay type: organism-based; conditions: in vivo, 48 h, dose 5-20 mg/kg, time 2 day
[13] = Antiproliferative activity against paclitaxel-resistant human MCF7/TxR cells measured after 72 hrs by MTT assay; assay type: functional, cell-based
MCF7 [14] = assay: Induction of apoptosis in human MCF7 cells assessed as upregulation of cleaved Caspase 9 at 5 to 20 nM measured after 24 hrs by Western blot analysis; assay type: functional, cell-based; conditions: dose 5-20 nM
MCF7 [15] = assay: Antitumor activity against human MCF7 cells xenografted in Balb/c mouse assessed as tumor growth inhibition at 10 mg/kg, ip administered for every 2 days for 21 days; assay type: functional; conditions: MCF7, 504 h, time 21 day, read-out: TGI
K562 = assay: cells; conditions: Homo sapiens, K562, 72 h
Description: Antiproliferative activity against human K562 cells measured after 72 hrs by MTT assay

Tubulin (Homo sapiens) [16] = biological target: T1, Tubulin (Homo sapiens); assay: Inhibition of [3H]colchicine binding to tubulin (unknown origin) at 5 uM by competition scintillation proximity assay relative to control; assay type: protein-complex assay
MCF7 [17] = assay: Induction of apoptosis in human MCF7 cells assessed as upregulation of BaX protein expression at 5 to 20 nM measured after 24 hrs by Western blot analysis; assay type: functional, cell-based; conditions: dose 5-20 nM
[18] = Toxicity in Balb/c mouse xenografted with human MCF7 cells assessed as pathological changes in lung at 5 to 20 mg/kg, ip administered for every 2 days for 21 days by hematoxylin and eosin staining based analysis; assay type: organism-based; conditions: in vivo, 504 h, dose 5-20 mg/kg, time 21 day
MCF7 [19] = assay: Induction of cell cycle arrest in human MCF7 cells assessed as upregulation of Bcl2 phosphorylation at […] at 5 to 20 nM measured after 24 hrs by Western blot analysis; assay type: functional, cell-based; conditions: dose 5-20 nM
MCF7 [20] = assay: Induction of apoptosis in human MCF7 cells assessed as upregulation of cleaved Caspase 3 at 5 to 20 nM measured after 24 hrs by Western blot analysis; assay type: functional, cell-based; conditions: dose 5-20 nM
MCF7 [21] = assay: Induction of cell cycle arrest in human MCF7 cells assessed as accumulation of cells at G2/M phase at 5 nM measured after 24 hrs by flow cytometry relative to control; assay type: functional
MCF7 [22] = assay: Induction of apoptosis in human MCF7 cells incubated for 24 hrs by annexinV/PI assay; assay type: functional, cell-based; conditions: dose 5-25 nM
A549 = assay: Antimigratory activity against human A549 cells assessed as inhibition of cell migration measured after 24 hrs by crystal violet staining based transwell migration assay; assay type: functional; conditions: dose 1.25-5 nM
A549/TxR [23] = assay: Induction of apoptosis in paclitaxel-resistant human A549/TxR cells incubated for 24 hrs by annexinV/PI assay; assay type: functional, cell-based; conditions: dose 5-20 nM
MCF7 [24] = assay: Induction of mitochondria transmembrane potential loss in human MCF7 cells measured after 12 hrs by JC1 dye based assay; assay type: functional; conditions: dose 5-20 nM
MCF7 [25] = assay: Antitumor activity against human MCF7 cells xenografted in Balb/c mouse assessed as decrease in CD31-positive tumor cells in tumor at 20 mg/kg, ip administered for every 2 days for 21 days; assay type: functional, organism-based; conditions: time 2.0 day
[26] = Toxicity in Balb/c mouse xenografted with human MCF7 cells assessed as pathological changes in spleen at 5 to 20 mg/kg, ip administered for every 2 days for 21 days by hematoxylin and eosin staining based analysis; assay type: organism-based; conditions: in vivo, 504 h, dose 5-20 mg/kg, time 21 day
MCF7 [27] = assay: Induction of cell cycle arrest in human MCF7 cells assessed as mitosis by measuring accumulation of histone H3 ser10 phosphorylation incubated for 24 hrs by Western blotting analysis; assay type: functional, cell-based; conditions: dose 5-25 nM
MCF7 [28] = assay: Induction of apoptosis in human MCF7 cells assessed as upregulation of p-Bim EL protein expression at 5 to 20 nM measured after 24 hrs by Western blot analysis; assay type: functional, cell-based; conditions: dose 5-20 nM
[29] = Metabolic stability in human liver microsomes assessed as half life at 1 uM by LC/MS analysis; assay type: ADME, Microsome
MCF7 [30] = assay: Antitumor activity against human MCF7 cells xenografted in Balb/c mouse assessed as tumor growth inhibition at 5 mg/kg, ip administered for every 2 days for 21 days; assay type: functional; conditions: MCF7, 504 h, time 21 day, read-out: TGI
HUVEC [31] = assay: Inhibition of angiogenesis in HUVEC cells assessed as broken tubular network at 5 nM after 6 hrs by phase contrast microscopy; assay type: functional, cell-based; conditions: Homo sapiens
MCF7 [32] = assay: Induction of cell cycle arrest in human MCF7 cells assessed as arrest in G2/M phase by measuring accumulation of cyclin B1 at 5 to 25 nM incubated for 24 hrs by Western blotting analysis; assay type: functional, cell-based; conditions: dose 5-25 nM
MCF7 [33] = assay: Induction of cell cycle arrest in human MCF7 cells assessed as cdc25c activation at 5 to 25 nM incubated for 24 hrs by Western blotting analysis; assay type: functional, cell-based; conditions: dose 5-25 nM
A549/TxR [34] = assay: Inhibition of colony formation of paclitaxel-resistant human A549/TxR cells at 20 nM measured after 24 hrs by crystal violet based assay; assay type: functional, cell-based

| SMILES | solubility [1] [µg/mL] | Activity (MCF7 [2]) | IC50 [3] [nM] | Activity (MCF7 [4]) [%] | LD50 [5] [mg/kg] | Activity (MCF7 [6]) | Activity (HUVEC [7]) | Activity [8] | Activity [9] | IC50 (HT-29) [nM] | Kd (Tubulin) [nM] | Activity (MCF7 [10]) [%] | inhibition (Tubulin (Homo sapiens) [11]) [%] | Activity [12] | IC50 [13] [nM] | Activity (MCF7 [14]) | inhibition in vivo at 10 mg/kg (MCF7 [15]) [%] | IC50 (K562) [nM] | inhibition (Tubulin (Homo sapiens) [16]) [%] | Activity (MCF7 [17]) | other results |
| --- | --- | --- | --- | --- | --- | --- | --- | --- | --- | --- | --- | --- | --- | --- | --- | --- | --- | --- | --- | --- | --- |
| COc1c(Cl)cc([C@@H]2c3cc4c(cc3C[C@H]3C(=O)NC(=O)N23)OCCO4)cc1Cl | 2.85 (≈ 6.55 µM) | Active | 5.2 | 16 | 211 | Active | Dose-Dependent Effect | Non-Toxic | Not Active | 8.3 | 4490 | 16 | 71.5 | Non-Toxic | 7.8 | Active | 85.1 | 6.3 | 88.7 | Active | Activity [18]: Non-Toxic; Activity (MCF7 [19]): Active; Activity (MCF7 [20]): Active; Activity (MCF7 [21]): 16%; Activity (MCF7 [22]): Dose-Dependent Effect; Activity (A549): Dose-Dependent Effect; inhibition (A549/TxR [23]): Dose-Dependent Effect; Activity (MCF7 [24]): Dose-Dependent Effect; Activity (MCF7 [25]): Active; Activity [26]: Non-Toxic; Activity (MCF7 [27]): Dose-Dependent Effect; Activity (MCF7 [28]): Active; half-life at 1 µM [29]: 26.1 min; inhibition in vivo at 5 mg/kg (MCF7 [30]): 41%; Activity (HUVEC [31]): Dose-Dependent Effect; Activity (MCF7 [32]): Active; Activity (MCF7 [33]): Active; inhibition (A549/TxR [34]): Active |
| COc1c(Br)cc([C@@H]2c3cc4c(cc3C[C@H]3C(=O)NC(=O)N23)OCCO4)cc1Br | < 0.5 | Active | 7.9 | 16 | 86.2 | Active | Dose-Dependent Effect | Non-Toxic | Not Active | 4.4 | 1700 | 16 | 69.7 | Non-Toxic | 5.2 | Active | 73.2 | 5.3 | 84.6 | Active | Activity [18]: Non-Toxic; Activity (MCF7 [19]): Active; Activity (MCF7 [20]): Active; Activity (MCF7 [21]): 16%; Activity (MCF7 [22]): Dose-Dependent Effect; Activity (A549): Dose-Dependent Effect; inhibition (A549/TxR [23]): Dose-Dependent Effect; Activity (MCF7 [24]): Dose-Dependent Effect; Activity (MCF7 [25]): Active; Activity [26]: Non-Toxic; Activity (MCF7 [27]): Dose-Dependent Effect; Activity (MCF7 [28]): Active; half-life at 1 µM [29]: 10.4 min; inhibition in vivo at 5 mg/kg (MCF7 [30]): 20.8%; Activity (HUVEC [31]): Dose-Dependent Effect; Activity (MCF7 [32]): Active; Activity (MCF7 [33]): Active; inhibition (A549/TxR [34]): Active |
